Ten molecules from ChEMBL document CHEMBL5291721, “A preclinical secondary pharmacology resource illuminates target-adverse drug reaction associations of marketed drugs” (Nat Commun, 2023) can be followed below.

Test [1] has as its target Beta-2 adrenergic receptor (Homo sapiens, UniProt P07550).
Test [2] concerns the target Beta-1 adrenergic receptor (Homo sapiens, UniProt P08588). The format is functional.
The target in the next test is Cannabinoid receptor 1 (Homo sapiens, UniProt P21554).
The next test addresses T1, Progesterone receptor (Homo sapiens, UniProt P06401).
T1 sequence (P06401 whole entry): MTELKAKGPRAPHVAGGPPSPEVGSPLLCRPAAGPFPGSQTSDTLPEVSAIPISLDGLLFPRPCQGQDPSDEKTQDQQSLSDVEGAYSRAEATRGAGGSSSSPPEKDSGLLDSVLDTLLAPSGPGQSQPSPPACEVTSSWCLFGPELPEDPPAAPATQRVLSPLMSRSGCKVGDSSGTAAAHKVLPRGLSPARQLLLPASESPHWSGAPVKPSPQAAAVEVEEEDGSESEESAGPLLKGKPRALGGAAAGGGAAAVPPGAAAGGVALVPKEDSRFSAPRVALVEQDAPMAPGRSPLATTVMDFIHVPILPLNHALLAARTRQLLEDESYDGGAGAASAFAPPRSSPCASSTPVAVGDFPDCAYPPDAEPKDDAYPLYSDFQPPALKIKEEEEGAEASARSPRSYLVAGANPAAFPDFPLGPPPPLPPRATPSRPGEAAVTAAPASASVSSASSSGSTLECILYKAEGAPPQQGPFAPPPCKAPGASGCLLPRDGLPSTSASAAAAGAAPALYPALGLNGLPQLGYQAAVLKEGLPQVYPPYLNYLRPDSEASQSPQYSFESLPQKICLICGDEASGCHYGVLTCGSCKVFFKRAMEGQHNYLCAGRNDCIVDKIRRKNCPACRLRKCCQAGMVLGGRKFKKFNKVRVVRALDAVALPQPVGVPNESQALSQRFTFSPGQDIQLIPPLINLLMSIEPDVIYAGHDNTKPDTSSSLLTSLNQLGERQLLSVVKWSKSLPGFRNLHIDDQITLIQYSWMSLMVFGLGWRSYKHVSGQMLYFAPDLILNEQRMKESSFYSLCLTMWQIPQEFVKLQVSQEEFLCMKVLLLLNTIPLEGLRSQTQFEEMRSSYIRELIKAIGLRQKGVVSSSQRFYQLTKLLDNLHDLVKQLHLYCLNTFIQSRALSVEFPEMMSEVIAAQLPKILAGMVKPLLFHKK
The format is functional.
Further: assay procedure not described here.

Sequence of Cannabinoid receptor 1 (P21554 whole entry): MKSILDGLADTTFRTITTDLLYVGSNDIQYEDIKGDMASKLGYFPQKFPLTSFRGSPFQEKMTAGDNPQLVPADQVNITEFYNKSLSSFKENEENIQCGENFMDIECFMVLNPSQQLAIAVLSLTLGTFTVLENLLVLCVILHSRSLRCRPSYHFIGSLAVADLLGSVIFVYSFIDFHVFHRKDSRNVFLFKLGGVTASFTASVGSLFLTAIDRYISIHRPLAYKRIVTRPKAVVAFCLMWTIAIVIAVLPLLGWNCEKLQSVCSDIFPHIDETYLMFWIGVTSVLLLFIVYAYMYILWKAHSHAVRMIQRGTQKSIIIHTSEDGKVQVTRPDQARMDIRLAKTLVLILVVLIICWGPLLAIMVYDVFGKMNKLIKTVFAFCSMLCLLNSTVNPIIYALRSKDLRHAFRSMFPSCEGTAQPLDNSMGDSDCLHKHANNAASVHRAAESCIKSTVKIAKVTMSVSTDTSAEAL
Sequence of Beta-2 adrenergic receptor (P07550 whole entry): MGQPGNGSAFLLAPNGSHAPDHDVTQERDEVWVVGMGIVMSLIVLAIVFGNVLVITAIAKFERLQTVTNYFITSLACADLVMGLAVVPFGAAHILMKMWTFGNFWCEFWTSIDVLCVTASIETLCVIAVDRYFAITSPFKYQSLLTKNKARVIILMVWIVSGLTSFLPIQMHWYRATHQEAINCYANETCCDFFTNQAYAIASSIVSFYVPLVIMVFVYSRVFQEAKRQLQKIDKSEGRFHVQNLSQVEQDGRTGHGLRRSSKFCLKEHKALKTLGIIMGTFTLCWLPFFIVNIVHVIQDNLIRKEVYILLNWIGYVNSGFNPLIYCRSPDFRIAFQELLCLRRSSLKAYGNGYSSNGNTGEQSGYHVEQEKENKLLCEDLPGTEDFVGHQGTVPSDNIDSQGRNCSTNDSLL
Sequence of Beta-1 adrenergic receptor (P08588 whole entry): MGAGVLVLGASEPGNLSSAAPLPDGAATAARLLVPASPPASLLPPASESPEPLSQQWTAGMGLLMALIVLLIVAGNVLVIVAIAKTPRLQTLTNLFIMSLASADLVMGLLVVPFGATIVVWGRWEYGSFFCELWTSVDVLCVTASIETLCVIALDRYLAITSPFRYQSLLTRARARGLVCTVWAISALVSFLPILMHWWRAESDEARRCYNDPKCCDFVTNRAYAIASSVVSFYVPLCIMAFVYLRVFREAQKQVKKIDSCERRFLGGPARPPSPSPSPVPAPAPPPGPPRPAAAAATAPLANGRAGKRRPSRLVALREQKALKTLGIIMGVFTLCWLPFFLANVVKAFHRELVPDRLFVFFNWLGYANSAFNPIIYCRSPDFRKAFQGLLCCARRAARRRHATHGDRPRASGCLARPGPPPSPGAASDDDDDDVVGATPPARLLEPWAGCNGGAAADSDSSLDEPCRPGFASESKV

As for `CC(CCc1ccc(O)cc1)NCCc1ccc(O)c(O)c1` (centres undefined) [DOBUTAMINE], the AC50 was 5.07 µM in test [1], 5.58 µM in test [2], over 30 µM at Cannabinoid receptor 1 and over 30 µM on Progesterone receptor.

Turning to `CC(C)NCC(O)c1ccc(O)c(O)c1` (centres undefined) [ISOPROTERENOL], the AC50 is over 10 µM at Cannabinoid receptor 1 and over 30 µM at Progesterone receptor.

In the case of `OC1(c2ccc(Cl)cc2)c2ccccc2C2=NCCN21` (centres undefined) [MAZINDOL], the concentration at half-maximal activity (AC50) was over 30 µM in test [1], over 30 µM in test [2], over 10 µM on Cannabinoid receptor 1 and over 30 µM at Progesterone receptor.

With `CCOC(=O)C1=C(C)NC(C)=C(C(=O)OC)C1c1cccc([N+](=O)[O-])c1` (centres undefined) [NITRENDIPINE], the AC50 (in test [1]; in test [2]; on Cannabinoid receptor 1) was over 10 µM each time.

With `[H]/N=C(/N)N/C(=N/[H])NCCc1ccccc1` [PHENFORMIN], the AC50 is over 10 µM in test [1], over 10 µM in test [2] and over 30 µM on Cannabinoid receptor 1.

Regarding `CCCCC1C(=O)N(c2ccccc2)N(c2ccccc2)C1=O` [PHENYLBUTAZONE], the AC50 (in test [1]; in test [2]; at Cannabinoid receptor 1; at Progesterone receptor) was over 10 µM throughout.

Consider `CC(N)C(O)c1ccccc1` (centres undefined) [PHENYLPROPANOLAMINE], for which the AC50 (in test [1]; in test [2]; on Cannabinoid receptor 1) was over 10 µM in each case.

For `Cc1noc(NS(=O)(=O)c2ccc(N)cc2)c1C` [SULFISOXAZOLE], the half-maximal activity concentration (AC50) (in test [1]; in test [2]; on Cannabinoid receptor 1; at Progesterone receptor) was over 10 µM each time.

As for `Cc1cc2cc3c(C)cc(=O)oc3c(C)c2o1` [TRIOXSALEN], the concentration at half-maximal activity (AC50) was over 10 µM in test [1], over 10 µM in test [2], over 10 µM on Cannabinoid receptor 1 and over 30 µM at Progesterone receptor.

Regarding `CCCC(CCC)C(N)=O` [VALPROMIDE], the AC50 (in test [1]; in test [2]; on Cannabinoid receptor 1) was over 10 µM throughout.

Usually AC50 stands for the concentration giving half of the maximal activity seen. Lower therefore signals greater potency.
